Measured values published in paper PMC5884648, “Relationship between the agonist activity of synthetic ligands of TRAIL-R2 and their cell surface binding modes” (Oncotarget, 2018).
*1 amine or outer side, *2 acyl side, *3 side chain or, on linkers, in order; H or OH if unused. Where a SMILES comes first, the peptide text is derived from it. Bridges are numbered along the chain shown (N, C = ends). Roman numbers before positions name the chains, in order. The star is where a group is joined. X1 = CN(CCCC(=O)NC(CCC(=O)[*:1])CCC(=O)[*:2])C(=O)c1ccccc1-c1c2ccc(=N)c(S(=O)(=O)O)c-2oc2c(S(=O)(=O)O)c(N)ccc12; X3 = N=c1ccc2c(-c3cc(C(=O)*)ccc3C(=O)O)c3ccc(N)c(S(=O)(=O)O)c3oc-2c1S(=O)(=O)O

Legend:
human TRAIL-R2 = molecular target: T1, human TRAIL-R2 (Homo sapiens, UniProt O14763); test: Surface plasmon resonance on sensor-immobilized TRAIL-R2; type: binding; details: SPR, 25° C, Langmuir model
T1 construct: purchased Enzo Life Sciences
Description: SPR assays were performed on a Biacore T200™, at 25° C. The running buffer was HBS-EP [10 mM HEPES (pH 7.4) containing 0.15 M NaCl, 3.4 mM EDTA and 0.005% (v/v) Tween P20]. The human TRAIL-R2 (Enzo Life Sciences, Farmingdale, NY, USA) receptor was immobilized on a sCM5 sensor chip (GE Healthcare) using the standard amine coupling procedure. The receptors were diluted in 10 mM acetate buffer (pH 5.0) at a concentration of 5 μg/mL. The TRAIL-R2 immobilization level on the sensor chip was 430 RU. Peptides were injected at a flow rate of 5 μL/min for 120 s and allowed to dissociate for an additional 420 s. Surfaces were then regenerated for 5 s with 25 mM HCl. All binding curves were double-referenced (i.e. subtraction of the data of the empty flow cell followed by the subtraction of the data from a running buffer injection cycle).
(§1) Double-referenced SPR binding curves sets were fitted globally using the BIAevaluation 4.1.1 (GE Healthcare Biacore) or TraceDrawer (Ridgeview Diagnostics AB, Uppsala, Sweden) softwares. The signal recorded with the LigandTracer on an empty spot or slide was subtracted from that recorded on cell-carrying slides. The resulting binding curves were analyzed by kinetic distribution analysis using the tool Interaction Map (Ridgeview Diagnostics AB, Uppsala, Sweden). Interaction Map decomposes the kinetic curve recorded for the binding of a homogeneous ligand to a heterogeneous group of targets into its different components. Results are represented as interaction maps (kon versus koff, log scale), where the color of each populated area represents its degree of contribution to the kinetic curve (red = high contribution, blue = low contribution).

[1] = molecular target: TRAIL-R2 expressed on BJAB cells (Homo sapiens, UniProt O14763); test: LigandTracer real time binding on living BJAB cells; design: expressed in transfected cells
Description: The adherent cells HCT116-TRAIL-R2-DEF and HCT116 cells were directly plated on glass slides (Ø20 mm) (10^6 cells/well). The cells in suspension (BJAB and BJAB-TRAIL-R2-DEF) were covalently adhered to glass slides coated with poly-L-lysine (0.1% v/v) (Sigma Aldrich, Saint Louis, MO, USA). The adhesion was strong enough for measurement during 10h. After 24 hours, the slides were fixed with superglue at different locations of a Petri dish, which was inserted in the LigandTracer Green instrument (Ridgeview Instrument AB, Uppsala, Sweden). An empty spot or empty glass slide fixed to the Petri dish was used to record the background signal. This set-up allowed the simultaneous monitoring of the binding of a given peptide to different cell-carrying glass slides fixed to the dish. Three mL of solution (culture medium without or with fluorescent peptide) were added to the dish. In the LigandTracer instrument, the dish is tilted and rotates. Consequently the 3 mL solution covers only the lower part of the dish and each cell-carrying slide is alternatively in contact and out of contact with the solution (at intervals of 8 to 16 s). The fluorescence signal is recorded over time when the slide is out of the solution, and therefore corresponds to the amount of bound peptide. The solution in the dish was initially the culture medium (∼30 min) to provide a stable base line. The fluorescent peptide was then added in increasing doses (10, 30 and 90 nM) every two to three hours. Finally the peptide-containing sample was replaced with fresh medium and the dissociation of the peptide from the cells was followed overnight. The measurements were conducted at room temperature (approximately 20° C).
as §1

[2] = molecular target: T2, TRAIL-R2 expressed on HCT116 cells (Homo sapiens, UniProt O14763); test: LigandTracer real time binding on living HCT116 cells; details: HCT116 cells expressing TRAIL-R2
T2 construct: we used BJAB, HCT116 and Jurkat that express a natural level of TRAIL-R2 receptors; endogenous in cells; host or cells: HCT116
Description: The adherent cells HCT116-TRAIL-R2-DEF and HCT116 cells were directly plated on glass slides (Ø20 mm) (10^6 cells/well). The cells in suspension (BJAB and BJAB-TRAIL-R2-DEF) were covalently adhered to glass slides coated with poly-L-lysine (0.1% v/v) (Sigma Aldrich, Saint Louis, MO, USA). The adhesion was strong enough for measurement during 10h. After 24 hours, the slides were fixed with superglue at different locations of a Petri dish, which was inserted in the LigandTracer Green instrument (Ridgeview Instrument AB, Uppsala, Sweden). An empty spot or empty glass slide fixed to the Petri dish was used to record the background signal. This set-up allowed the simultaneous monitoring of the binding of a given peptide to different cell-carrying glass slides fixed to the dish. […] The fluorescence signal is recorded over time when the slide is out of the solution, and therefore corresponds to the amount of bound peptide. […]
Double-referenced SPR binding curves sets were fitted globally using the BIAevaluation 4.1.1 (GE Healthcare Biacore) or TraceDrawer (Ridgeview Diagnostics AB, Uppsala, Sweden) softwares. The signal recorded with the LigandTracer on an empty spot or slide was subtracted from that recorded on cell-carrying slides. The resulting binding curves were analyzed by kinetic distribution analysis using the tool Interaction Map (Ridgeview Diagnostics AB, Uppsala, Sweden). […]

TRAIL-R2 on BJAB cells = molecular target: T3, TRAIL-R2 on BJAB cells (Homo sapiens, UniProt O14763); test: Flow cytometry staining with fluorescent peptides, BJAB; type: binding
T3 construct: expressed in transfected cells
Description: (§2) 10^6 cells were washed in PBS containing 2% FCS and then incubated at 4° C for 30 min with an anti-TRAIL-R2 antibody (clone BK9 Diaclone, Besançon, France) according to concentration recommended by the manufacturer or with fluorescent peptides at the concentration of 1 µM. After two washes in PBS-2% FBS, TRAIL-R2 expression was monitored by flow cytometry (Guava easyCyte™, Merck Milipore, Darmstadt, Germany) and data were analyzed with InCyte Software (Merck Milipore).

TRAIL-R2 on HCT116 cells = molecular target: T4, TRAIL-R2 on HCT116 cells (Homo sapiens, UniProt O14763); test: Flow cytometry staining with fluorescent peptides, HCT116; type: binding
T4 construct: we used BJAB, HCT116 and Jurkat that express a natural level of TRAIL-R2 receptors; endogenous in cells; host or cells: HCT116
Description: as §2

HCT116 cells = test: Cell viability MTS assay, HCT116; type: cell-based, human; details: 24 hours
Description: (§3) BJAB, Jurkat and HCT116 cells (10^5 cells/well) were cultured in 100 µL of culture medium in 96-flat bottom well plates. The next day, cells were treated with the indicated concentrations of the different TRAILmin/DR5 peptides. After 24 hours of treatment cell viability measurement was performed by the MTS assay according to the manufacturer specification (Promega Corporation, Madison, WI, USA).

BJAB cells = test: Cell viability MTS assay, BJAB; type: cell-based, human; details: 24 hours
Description: as §3

TRAIL-R2 expressed on BJAB cells, sequence (O14763 56-440): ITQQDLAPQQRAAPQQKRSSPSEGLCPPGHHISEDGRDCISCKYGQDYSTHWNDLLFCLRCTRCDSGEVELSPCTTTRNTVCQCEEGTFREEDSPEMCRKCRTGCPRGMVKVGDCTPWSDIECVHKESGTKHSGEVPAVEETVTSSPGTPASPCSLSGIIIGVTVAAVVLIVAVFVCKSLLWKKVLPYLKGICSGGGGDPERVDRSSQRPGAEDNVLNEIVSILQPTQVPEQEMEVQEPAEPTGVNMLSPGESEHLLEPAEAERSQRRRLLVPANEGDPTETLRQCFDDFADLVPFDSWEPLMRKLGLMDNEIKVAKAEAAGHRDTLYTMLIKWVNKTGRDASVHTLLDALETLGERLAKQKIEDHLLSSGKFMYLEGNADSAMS
T1 sequence (O14763 56-440): as above
T3 sequence (O14763 56-440): as above
T4 sequence (O14763 56-440): as above
T2 sequence (O14763 56-440): as above

Structure (SMILES)	koff (human TRAIL-R2) [s⁻¹]	kon (human TRAIL-R2) [M⁻¹ s⁻¹]	cell surface binding ([1]; BJAB cells deficient for TRAIL-R2)	cell surface binding ([1]; BJAB cells expressing TRAIL-R2)	fluorescent signal reached ([1]; BJAB cells that expressed TRAIL-R2, 10, 30 and (f1d) 90 nM)	cell surface binding [2]	binding by flow cytometry (TRAIL-R2 on BJAB cells; BJAB cells deficient for TRAIL-R2, peptide 1 µM)	binding by flow cytometry (TRAIL-R2 on BJAB cells; BJAB cells expressing TRAIL-R2, peptide 1 µM)	binding by flow cytometry (TRAIL-R2 on HCT116 cells; HCT116 cells deficient for TRAIL-R2, peptide 1 µM)	binding by flow cytometry (TRAIL-R2 on HCT116 cells; HCT116 cells expressing TRAIL-R2, peptide 1 µM)	apoptosis induction in HCT116 cells (HCT116 cells)	apoptosis induction in BJAB cells (BJAB cells)
CC[C@H](C)[C@@H]1NC(=O)[C@H](CCCNC(=N)N)NC(=O)[C@H](CC(N)=O)NC(=O)[C@H](CC(=O)O)NC(=O)[C@H](CC(C)C)NC(=O)[C@@H](NC(=O)[C@H](CC(=O)O)NC(=O)[C@H](Cc2c[nH]c3ccccc23)NC(C)=O)CSSC[C@@H](C(=O)N[C@H](C(=O)N[C@@H](CCCNC(=N)N)C(=O)N[C@@H](CC(C)C)C(N)=O)C(C)C)NC(=O)[C@H](CCC(N)=O)NC(=O)[C@H](CCCNC(=N)N)NC(=O)[C@H](CCCCN)NC(=O)CNC1=O [2m] (Ac-WDCLDNRIGKRQCVRL-NH2; disulfide 3-13; N-terminus and C-terminus assumed)	0.016	3600										
CC[C@H](C)[C@@H]1NC(=O)[C@H](CCCNC(=N)N)NC(=O)[C@H](CC(N)=O)NC(=O)[C@H](CC(=O)O)NC(=O)[C@H](CC(C)C)NC(=O)[C@@H](NC(=O)[C@H](CC(=O)O)NC(=O)[C@H](Cc2c[nH]c3ccccc23)NC(C)=O)CSSC[C@@H](C(=O)N[C@H](C(=O)N[C@@H](CCCCNC(=O)CCC(CCC(=O)NCCCC[C@H](NC(=O)[C@@H](NC(=O)[C@@H]2CSSC[C@H](NC(=O)[C@H](CC(=O)O)NC(=O)[C@H](Cc3c[nH]c4ccccc34)NC(C)=O)C(=O)N[C@@H](CC(C)C)C(=O)N[C@@H](CC(=O)O)C(=O)N[C@@H](CC(N)=O)C(=O)N[C@@H](CCCNC(=N)N)C(=O)N[C@@H]([C@@H](C)CC)C(=O)NCC(=O)N[C@@H](CCCNC(=N)N)C(=O)N[C@@H](CCCNC(=N)N)C(=O)N[C@@H](CCC(N)=O)C(=O)N2)C(C)C)C(=O)N[C@@H](CC(C)C)C(N)=O)NC(=O)CCCN(C)C(=O)c2ccccc2-c2c3ccc(=N)c(S(=O)(=O)O)c-3oc3c(S(=O)(=O)O)c(N)ccc23)C(=O)N[C@@H](CC(C)C)C(N)=O)C(C)C)NC(=O)[C@H](CCC(N)=O)NC(=O)[C@H](CCCNC(=N)N)NC(=O)[C@H](CCCNC(=N)N)NC(=O)CNC1=O (stereo partly drawn) [f1d] (I: Ac-WDCLDNRIGRRQCVKL-NH2 / II: Ac-WDCLDNRIGRRQCVKL-NH2; disulfide I:3-I:13, II:3-II:13; linker I:15-II:15 via X1; N-terminus and C-terminus assumed)	0.0014	22000	weak signals	strong binding	> 25	bound weakly	not	bound	not	bound	scarcely induced their apoptosis	induced apoptosis
CC[C@H](C)[C@@H]1NC(=O)[C@H](CCCNC(=N)N)NC(=O)[C@H](CC(N)=O)NC(=O)[C@H](CC(=O)O)NC(=O)[C@H](CC(C)C)NC(=O)[C@@H](NC(=O)[C@H](CC(=O)O)NC(=O)[C@H](Cc2c[nH]c3ccccc23)NC(C)=O)CSSC[C@@H](C(=O)N[C@H](C(=O)N[C@@H](CCCCNC(=O)c2ccc(C(=O)O)c(-c3c4ccc(=N)c(S(=O)(=O)O)c-4oc4c(S(=O)(=O)O)c(N)ccc34)c2)C(=O)N[C@@H](CC(C)C)C(N)=O)C(C)C)NC(=O)[C@H](CCC(N)=O)NC(=O)[C@H](CCCNC(=N)N)NC(=O)[C@H](CCCNC(=N)N)NC(=O)CNC1=O [f1m] (Ac-WDCLDNRIGRRQCVK(X3)L-NH2; disulfide 3-13; N-terminus and C-terminus assumed)	0.0014	14000		weak binding								did not induce apoptosis
